Results as given in patent US11142515B2, “Pyrazolyl-ureas as kinase inhibitors” (RESPIVERT LIMITED, priority 2014, dated 2021).

Assays:
p38MAPKγ (MAPK12) = molecular target: T1, p38MAPKγ (MAPK12) (Homo sapiens, UniProt P53778); test: p38 MAPKγ enzyme inhibition (Z-LYTE FRET); type: biochemical; settings: Table 2A; read-out: IC50 Values for Enzyme Inhibition p38 MAPKγ
T1 construct: purchased Life Technologies
T1 sequence (P53778 1-367): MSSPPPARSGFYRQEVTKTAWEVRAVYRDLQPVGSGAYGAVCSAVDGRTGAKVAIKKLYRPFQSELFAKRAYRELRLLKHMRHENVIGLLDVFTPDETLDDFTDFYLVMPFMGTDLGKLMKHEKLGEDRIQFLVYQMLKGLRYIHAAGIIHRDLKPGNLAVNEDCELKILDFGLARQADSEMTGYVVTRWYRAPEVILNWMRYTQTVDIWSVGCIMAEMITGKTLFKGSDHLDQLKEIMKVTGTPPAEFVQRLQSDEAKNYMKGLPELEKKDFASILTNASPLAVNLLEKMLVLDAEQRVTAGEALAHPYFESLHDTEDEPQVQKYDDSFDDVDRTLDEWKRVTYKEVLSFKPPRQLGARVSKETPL
Procedure, shortened: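 Z-LYTE read-out: after 1 h protease development, only non-phosphorylated peptide is cleaved, and the donor/acceptor (coumarin/fluorescein) ratio reports phosphorylation. Beforehand, enzyme and compound (stock concentrations 0.0012–40 μg/mL) were preincubated 2 h at RT, then the kinase reaction ran 1 h at RT with peptide and ATP (8 μM and 400 μM stocks).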

c-Src = molecular target: T2, c-Src (Homo sapiens, UniProt P12931); test: c-Src enzyme inhibition (Z-LYTE FRET); type: biochemical; settings: Table 2A
T2 construct: purchased Life Technologies
Experimental: (§1) The enzyme inhibitory activities of compounds disclosed herein were determined by FRET using synthetic peptides labelled with both donor and acceptor fluorophores (Z-LYTE, Life Technologies, Paisley, UK).
(§2) The relevant enzyme (1000 ng/mL, 1400 ng/mL or 2000 ng/mL respectively, 2.5 μL) was incubated with the test compound (either 40 μg/mL, 12 μg/mL, 4 μg/mL, 1.2 μg/mL, 0.4 μg/mL, 0.12 μg/mL, 0.04 μg/mL, 0.012 μg/mL, 0.004 μg/mL or 0.0012 μg/mL, 2.5 μL each) for 2 h at RT. The FRET peptides (8 μM, 2.5 μL), and appropriate ATP solutions (2.5 μL, 800 μM for c-Src, and 60 μM ATP for HCK and Syk) were then added to the enzyme/compound mixtures and incubated for 1 h at RT. Development reagent (protease, 5 μL) was added for 1 h prior to detection in a fluorescence microplate reader (EnVision, Perkin Elmer).
(§3) In all cases, the site-specific protease cleaves non-phosphorylated peptide only and eliminates the FRET signal. Phosphorylation levels of each reaction were calculated using the ratio of coumarin emission (donor) over fluorescein emission (acceptor), for which low ratios indicate high phosphorylation and high ratios indicate low phosphorylation levels.

Syk = molecular target: T3, Syk (Homo sapiens, UniProt P43405); test: Syk enzyme inhibition (Z-LYTE FRET); type: biochemical; settings: Table 2A
T3 construct: purchased Life Technologies
Experimental: as §1, §2, §3

d-U937 cells = test: Cell viability: MTT assay in differentiated U937 cells; type: cell-based, human; settings: 10 μg/mL
Experimental: Differentiated U937 cells were pre-incubated with each test compound (final concentration 10 μg/mL in 200 μL media indicated below) under two protocols: the first for 4 h in 5% FCS RPMI1640 media and the second in 10% FCS RPMI1640 media for 24 h. The supernatant was replaced with new media (200 μL) and MTT stock solution (10 μL, 5 mg/mL) was added to each well. After incubation for 1 h the media were removed, DMSO (200 μL) was added to each well and the plates were shaken lightly for 1 h prior to reading the absorbance at 550 nm. The percentage loss of cell viability was calculated for each well relative to vehicle (0.5% DMSO) treatment. Consequently an apparent increase in cell viability for drug treatment relative to vehicle is tabulated as a negative percentage.

T2 sequence (P12931 whole entry): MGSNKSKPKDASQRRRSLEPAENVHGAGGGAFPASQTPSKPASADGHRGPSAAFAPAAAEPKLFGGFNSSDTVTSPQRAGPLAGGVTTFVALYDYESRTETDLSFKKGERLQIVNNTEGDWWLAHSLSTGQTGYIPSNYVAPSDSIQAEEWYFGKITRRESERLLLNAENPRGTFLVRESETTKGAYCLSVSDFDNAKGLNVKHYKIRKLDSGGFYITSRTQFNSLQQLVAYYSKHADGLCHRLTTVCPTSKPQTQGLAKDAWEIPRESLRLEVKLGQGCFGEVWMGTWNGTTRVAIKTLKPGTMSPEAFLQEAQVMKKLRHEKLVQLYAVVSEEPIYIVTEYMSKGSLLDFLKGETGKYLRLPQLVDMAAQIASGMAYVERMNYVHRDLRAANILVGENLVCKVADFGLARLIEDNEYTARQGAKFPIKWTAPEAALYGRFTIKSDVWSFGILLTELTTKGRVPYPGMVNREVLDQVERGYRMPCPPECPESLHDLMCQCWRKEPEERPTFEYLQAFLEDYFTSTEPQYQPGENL

Structure (SMILES): Cc1cc(-n2nc(C(C)(C)C)cc2NC(=O)Nc2ccc(OCc3ccnc(Nc4cnccn4)c3)c3ccccc23)cs1 (single isomer, unassigned) [Example 31]
- IC50 (p38MAPKγ (MAPK12)): 112 nM
- IC50 (c-Src): 154 nM
- IC50 (Syk): > 16500 nM
- MTT Assay Cell viability at time point indicated in d-U937 Cells, 4 h (d-U937 cells): − (−ve and +ve indicate the value is below and above, respectively, the no significant effect threshold defined as 30% inhibition at 10 μg/mL at the time point indicated)
- MTT Assay Cell viability at time point indicated in d-U937 Cells, 24 h (d-U937 cells): − (−ve and +ve indicate the value is below and above, respectively, the no significant effect threshold defined as 30% inhibition at 10 μg/mL at the time point indicated)

Structure (SMILES): COCCNC(=O)c1cnc(Nc2cc(COc3ccc(NC(=O)Nc4cc(C(C)(C)C)nn4-c4ccc(C)cc4)c4ccccc34)ccn2)cn1 [Example 3]
- IC50 (p38MAPKγ (MAPK12)): 222 nM
- IC50 (c-Src): 144 nM
- IC50 (Syk): > 14300 nM
- MTT Assay Cell viability at time point indicated in d-U937 Cells, 4 h (d-U937 cells): − (−ve and +ve indicate the value is below and above, respectively, the no significant effect threshold defined as 30% inhibition at 10 μg/mL at the time point indicated)
- MTT Assay Cell viability at time point indicated in d-U937 Cells, 24 h (d-U937 cells): − (−ve and +ve indicate the value is below and above, respectively, the no significant effect threshold defined as 30% inhibition at 10 μg/mL at the time point indicated)

Structure (SMILES): Cc1ccc(-n2nc(C(C)(C)C)cc2NC(=O)Nc2ccc(OCc3ccnc(Nc4cnc(C)c(C)n4)c3)c3ccccc23)cc1 [Example 4, 1-(3-(tert-Butyl)-1-(p-tolyl)-1H-pyrazol-5-yl)-3-(4-((2-((5,6-dimethylpyrazin-2-yl)amino)pyridin-4-yl)methoxy)naphthalen-1-yl)urea]
- IC50 (p38MAPKγ (MAPK12)): 441 nM
- IC50 (c-Src): 447 nM
- IC50 (Syk): > 16000 nM
- MTT Assay Cell viability at time point indicated in d-U937 Cells, 4 h (d-U937 cells): − (−ve and +ve indicate the value is below and above, respectively, the no significant effect threshold defined as 30% inhibition at 10 μg/mL at the time point indicated)
- MTT Assay Cell viability at time point indicated in d-U937 Cells, 24 h (d-U937 cells): − (−ve and +ve indicate the value is below and above, respectively, the no significant effect threshold defined as 30% inhibition at 10 μg/mL at the time point indicated)

Structure (SMILES): Cc1ccc(-n2nc(C(C)(C)C)cc2NC(=O)Nc2ccc(OCc3ccnc(Nc4cnc(CN)cn4)c3)c3ccccc23)cc1 [Example 5, 1-(4-((2-((5-(Aminomethyl)pyrazin-2-yl)amino)pyridin-4-yl)methoxy)naphthalen-1-yl)-3-(3-(tert-butyl)-1-(p-tolyl)-1H-pyrazol-5-yl)urea]
- IC50 (p38MAPKγ (MAPK12)): 16 nM
- IC50 (c-Src): < 0.48 nM
- IC50 (Syk): > 15900 nM
- MTT Assay Cell viability at time point indicated in d-U937 Cells, 4 h (d-U937 cells): − (−ve and +ve indicate the value is below and above, respectively, the no significant effect threshold defined as 30% inhibition at 10 μg/mL at the time point indicated)
- MTT Assay Cell viability at time point indicated in d-U937 Cells, 24 h (d-U937 cells): + (−ve and +ve indicate the value is below and above, respectively, the no significant effect threshold defined as 30% inhibition at 10 μg/mL at the time point indicated)

Structure (SMILES): CC(=O)NCc1cnc(Nc2cc(COc3ccc(NC(=O)Nc4cc(C(C)(C)C)nn4-c4ccc(C)cc4)c4ccccc34)ccn2)cn1 [Example 6, N-((5-((4-(((4-(3-(3-(tert-butyl)-1-(p-tolyl)-1H-pyrazol-5-yl)ureido)naphthalen-1-yl)oxy)methyl)pyridin-2-yl)amino)pyrazin-2-yl)methyl)acetamide]
- IC50 (p38MAPKγ (MAPK12)): 37 nM
- IC50 (c-Src): 24 nM
- IC50 (Syk): 7520 nM
- MTT Assay Cell viability at time point indicated in d-U937 Cells, 4 h (d-U937 cells): − (−ve and +ve indicate the value is below and above, respectively, the no significant effect threshold defined as 30% inhibition at 10 μg/mL at the time point indicated)
- MTT Assay Cell viability at time point indicated in d-U937 Cells, 24 h (d-U937 cells): − (−ve and +ve indicate the value is below and above, respectively, the no significant effect threshold defined as 30% inhibition at 10 μg/mL at the time point indicated)

Structure (SMILES): CNC(=O)c1cnc(Nc2cc(COc3ccc(NC(=O)Nc4cc(C(C)(C)C)nn4-c4ccc(C)cc4)c4ccccc34)ccn2)cn1 [Example 7, 5-((4-(((4-(3-(3-(tert-Butyl)-1-(p-tolyl)-1H-pyrazol-5-yl)ureido)naphthalen-1-yl)oxy)methyl)pyridin-2-yl)amino)-N-methylpyrazine-2-carboxamide]
- IC50 (p38MAPKγ (MAPK12)): 151 nM
- IC50 (c-Src): 358 nM
- IC50 (Syk): > 15200 nM
- MTT Assay Cell viability at time point indicated in d-U937 Cells, 4 h (d-U937 cells): + (−ve and +ve indicate the value is below and above, respectively, the no significant effect threshold defined as 30% inhibition at 10 μg/mL at the time point indicated)
- MTT Assay Cell viability at time point indicated in d-U937 Cells, 24 h (d-U937 cells): + (−ve and +ve indicate the value is below and above, respectively, the no significant effect threshold defined as 30% inhibition at 10 μg/mL at the time point indicated)

Structure (SMILES): Cc1ccc(-n2nc(C(C)(C)C)cc2NC(=O)Nc2ccc(OCc3ccnc(Nc4cncc(CC(=O)N(C)C)n4)c3)c3ccccc23)cc1 [Example 8, 2-(6-((4-(((4-(3-(3-(tert-butyl)-1-(p-tolyl)-1H-pyrazol-5-yl)ureido)naphthalen-1-yl)oxy)methyl)pyridin-2-yl)amino)pyrazin-2-yl)-N,N-dimethylacetamide]
- IC50 (p38MAPKγ (MAPK12)): 43 nM
- IC50 (c-Src): 32 nM
- IC50 (Syk): > 14600 nM
- MTT Assay Cell viability at time point indicated in d-U937 Cells, 4 h (d-U937 cells): − (−ve and +ve indicate the value is below and above, respectively, the no significant effect threshold defined as 30% inhibition at 10 μg/mL at the time point indicated)
- MTT Assay Cell viability at time point indicated in d-U937 Cells, 24 h (d-U937 cells): + (−ve and +ve indicate the value is below and above, respectively, the no significant effect threshold defined as 30% inhibition at 10 μg/mL at the time point indicated)

Structure (SMILES): Cc1ccc(-n2nc(C(C)(C)C)cc2NC(=O)Nc2ccc(OCc3ccnc(Nc4cnc(C(=O)N(C)C)cn4)c3)c3ccccc23)cc1 [Example 9, 5-((4-(((4-(3-(3-(tert-Butyl)-1-(p-tolyl)-1H-pyrazol-5-yl)ureido)naphthalen-1-yl)oxy)methyl)pyridin-2-yl)amino)-N,N-dimethylpyrazine-2-carboxamide]
- IC50 (p38MAPKγ (MAPK12)): 9240 nM
- IC50 (c-Src): 2510 nM
- IC50 (Syk): > 14900 nM
- MTT Assay Cell viability at time point indicated in d-U937 Cells, 4 h (d-U937 cells): − (−ve and +ve indicate the value is below and above, respectively, the no significant effect threshold defined as 30% inhibition at 10 μg/mL at the time point indicated)
- MTT Assay Cell viability at time point indicated in d-U937 Cells, 24 h (d-U937 cells): − (−ve and +ve indicate the value is below and above, respectively, the no significant effect threshold defined as 30% inhibition at 10 μg/mL at the time point indicated)

Structure (SMILES): Cc1ccc(-n2nc(C(C)(C)C)cc2NC(=O)Nc2ccc(OCc3ccnc(Nc4cnc(CO)cn4)c3)c3ccccc23)cc1 [Example 10, 1-(3-(tert-Butyl)-1-(p-tolyl)-1H-pyrazol-5-yl)-3-(4-((2-((5-(hydroxymethyl)pyrazin-2-yl)amino)pyridin-4-yl)methoxy)naphthalen-1-yl)urea]
- IC50 (p38MAPKγ (MAPK12)): 31 nM
- IC50 (c-Src): 47 nM
- IC50 (Syk): > 15900 nM
- MTT Assay Cell viability at time point indicated in d-U937 Cells, 4 h (d-U937 cells): − (−ve and +ve indicate the value is below and above, respectively, the no significant effect threshold defined as 30% inhibition at 10 μg/mL at the time point indicated)
- MTT Assay Cell viability at time point indicated in d-U937 Cells, 24 h (d-U937 cells): − (−ve and +ve indicate the value is below and above, respectively, the no significant effect threshold defined as 30% inhibition at 10 μg/mL at the time point indicated)

Structure (SMILES): Cc1ccc(-n2nc(C(C)(C)C)cc2NC(=O)Nc2ccc(OCc3ccnc(Nc4cncc(C#N)n4)c3)c3ccccc23)cc1 [Example 11]
- IC50 (p38MAPKγ (MAPK12)): 682 nM
- IC50 (c-Src): 600 nM
- IC50 (Syk): > 16000 nM
- MTT Assay Cell viability at time point indicated in d-U937 Cells, 4 h (d-U937 cells): − (−ve and +ve indicate the value is below and above, respectively, the no significant effect threshold defined as 30% inhibition at 10 μg/mL at the time point indicated)
- MTT Assay Cell viability at time point indicated in d-U937 Cells, 24 h (d-U937 cells): − (−ve and +ve indicate the value is below and above, respectively, the no significant effect threshold defined as 30% inhibition at 10 μg/mL at the time point indicated)
